US10280198B2, “Therapeutic agents for reducing parathyroid hormone levels” (KAI PHARMACEUTICALS, INC., priority 2009, dated 2019)
Read-outs that look alike come from different tables or passages of the source.

How the values were obtained:
[1] = tested on: plasma PTH; test: 1K1C rat model of acute renal insufficiency, plasma PTH after dosing; format: in vivo; conditions: 1K1C rats
Text: A rat model of acute renal insufficiency (also referred to as the 1K1C model) was developed to simulate the pathology of SHPT associated with end stage renal disease. […] The development of this model allowed for the further characterization of described compounds in the context of a subject with renal dysfunction and elevated PTH. Typical baseline PTH levels in this model averaged ˜450 pg/mL.
The ensuing ischemia/reperfusion (I/R) damage to the remaining kidney results in significant necrosis and renal failure. Serum creatinine levels were elevated for over 24-48 hours following I/R insult (data not shown). […] By 48 hours post-I/R, plasma PTH levels were elevated to ˜450 pg/mL (˜5 fold increase) and in some instances reach as high as ˜1200 pg/mL. This reproducible increase in serum creatinine and PTH provided a robust model that mimics the physiology seen ESRD patients.
The protocol used in this study is as follows. Male Sprague Dawley rats were purchased from Charles River Laboratories (Hollister, Calif.; requested purchase weight 250-275 g). […] Animals were maintained in a temperature-controlled environment with a constant 12 hours light/12 hours dark cycle and free access to food and water at all times. All experimental procedures with animals were performed according to IACUC guidelines.
General anesthesia was induced and maintained by intraperitoneal (IP) injection of sodium pentobarbital (5.2%, 0.4 mL/rat). For animals that received 45 minutes of renal ischemia an additional IP injection of sodium pentobarbital (5.2%, 0.1 mL/rat) was given to maintain the anesthetic plane. Blood sampling for PTH measurements following administration of compounds in normal rats was done under continuous isoflurane anesthesia.
For model development studies, the left femoral vein was cannulated with a PE-10 tube for blood drawing. Both kidneys were exposed via a laparotomy. A right nephrectomy was performed after the right renal pedicle and ureter were ligated with double 2-0 silk sutures. After confirmation of non-bleeding in the right pedicle, the left renal artery was carefully dissected and clamped with a micro vascular clip to induce left renal global ischemia. Renal ischemia was confirmed by observation of a global white-grey color change (blanching). The abdominal incision was temporarily covered with gauze to help maintain the temperature of the abdominal organs. After 45 minutes, the designated period of ischemia, the clip was removed and left renal artery flow was considered restored upon observation of a global restoration of red color. The abdominal incision was closed in layers with 2-0 silk sutures. The animal was then recovered from anesthesia. Physiological parameters including body temperature (36-37.5° C.) and body weight were measured throughout the procedure. Body temperature was monitored and maintained using a heat pad rectal probe feedback system.
Approximately 48 hours after the 1K1C surgery (I/R injury), animals were dosed with various compounds to measure effects on plasma PTH and calcium. In most cases, test articles were administered by IV infusion (infusion time 5, 10 or 30 minutes) although in some studies compounds were administered by IV bolus or subcutaneous (SC) bolus injection. For drug administration and blood draws, animals were anesthetized with isoflurane.

[2] = biological target: T1, human calcium-sensing receptor (CaSR) (Homo sapiens, UniProt P41180); test: In vitro cell assay in HEK-293 expressing the human calcium-sensing receptor (IP1 production); format: cell-based
T1 construct: expressed in transfected cells; host or cells: HEK 293T cells, transiently transfected (lipofectamine 2000); in some cases HEK293 cells stably transfected
T1 sequence (P41180 20-1078): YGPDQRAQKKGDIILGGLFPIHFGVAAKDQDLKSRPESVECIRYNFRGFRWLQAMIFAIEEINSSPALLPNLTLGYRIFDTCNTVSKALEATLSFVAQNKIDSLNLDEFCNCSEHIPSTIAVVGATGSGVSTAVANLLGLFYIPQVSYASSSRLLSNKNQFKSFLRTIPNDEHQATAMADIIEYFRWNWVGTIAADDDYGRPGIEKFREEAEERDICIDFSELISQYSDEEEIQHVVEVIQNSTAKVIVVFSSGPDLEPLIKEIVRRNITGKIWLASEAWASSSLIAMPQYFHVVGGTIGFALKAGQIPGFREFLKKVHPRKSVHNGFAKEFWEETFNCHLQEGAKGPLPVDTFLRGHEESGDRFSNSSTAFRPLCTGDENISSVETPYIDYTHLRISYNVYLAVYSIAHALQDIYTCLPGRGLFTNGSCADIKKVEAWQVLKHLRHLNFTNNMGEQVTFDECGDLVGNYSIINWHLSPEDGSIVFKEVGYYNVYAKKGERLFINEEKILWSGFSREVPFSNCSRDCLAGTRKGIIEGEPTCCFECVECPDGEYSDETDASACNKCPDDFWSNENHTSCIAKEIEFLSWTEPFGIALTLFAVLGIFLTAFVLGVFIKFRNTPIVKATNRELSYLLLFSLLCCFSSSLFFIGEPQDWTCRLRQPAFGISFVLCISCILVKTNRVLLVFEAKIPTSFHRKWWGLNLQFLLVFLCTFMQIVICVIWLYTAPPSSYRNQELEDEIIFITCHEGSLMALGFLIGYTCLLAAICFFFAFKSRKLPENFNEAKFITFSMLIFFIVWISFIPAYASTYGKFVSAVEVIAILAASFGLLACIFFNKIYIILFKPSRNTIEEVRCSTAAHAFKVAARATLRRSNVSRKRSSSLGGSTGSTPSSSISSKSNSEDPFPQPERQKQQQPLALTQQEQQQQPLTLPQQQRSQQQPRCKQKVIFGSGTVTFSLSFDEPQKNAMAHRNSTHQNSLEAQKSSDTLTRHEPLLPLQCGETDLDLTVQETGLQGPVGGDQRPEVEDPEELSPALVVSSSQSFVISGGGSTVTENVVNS
Method in brief: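 HEK293 cells transfected with human CaSR exposed to peptides at eight concentrations in duplicate (top 1 mM or 300 μM, ½-log dilutions) at 37 °C for 1.5 h.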

[3] = 3 mg/kg 30-minute IV infusion, FIG. 1
[4] = Table 5, IP1 production in HEK293 cells expressing human CaSR, eight concentrations in duplicate, read-out: EC50 in CaSR in vitro assay

Row | EC50 ([2]; Table 1, IP1 in HEK293 cells expressing human CaSR, read-out: In vitro EC50) [nM] | EC50 [2, 4] [nM] | SMILES | PTH reduction from baseline 16 hours after dosing ([1]; 1 mg/kg 30-minute IV infusion) [%] | initial fall of PTH levels from baseline ([1]; 1 mg/kg 30-minute IV infusion) | initial drop of PTH, level as % of baseline ([1]; 1 mg/kg SC bolus) [%] | duration of reduced plasma PTH levels ([1]; 1 mg/kg, SC bolus or 30-minute IV infusion (both routes)) | reduced PTH levels from baseline twenty-four hours after dosing ([1]; 1 mg/kg, either route (SC bolus or IV infusion)) | PTH-lowering efficacy and duration of action [1, 3] | mean PTH reduction at the 24 hour time point [1, 3] [%] | PTH-lowering activity ([1]; 1 mg/kg 30-minute IV infusion, over 24 hours, FIG. 9)
1 | 500 | 500 | CC(=O)N[C@H](CS)C(=O)N[C@H](CCCNC(=N)N)C(=O)N[C@H](CCCNC(=N)N)C(=O)N[C@H](CCCNC(=N)N)C(=O)N[C@H](CCCNC(=N)N)C(=O)N[C@H](CCCNC(=N)N)C(=O)N[C@H](CCCNC(=N)N)C(N)=O [SEQ ID NO: 6, Ac-crrrrrr-NH2] | ~80 | 80-90% | ~40 | over 24 hours | 40-60% | increased efficacy as well as the duration of action | ~40 | –
2 | – | 1600 | CC(=O)N[C@H](CS)C(=O)N[C@H](C)C(=O)N[C@H](CCCNC(=N)N)C(=O)N[C@H](CCCNC(=N)N)C(=O)N[C@H](CCCNC(=N)N)C(=O)N[C@H](C)C(=O)N[C@H](CCCNC(=N)N)C(N)=O [SEQ ID NO: 26, Ac-carrrar-NH2] | – | – | – | – | – | – | – | activity that is equivalent to Ac-crrrrrr-NH2
